Test results from patent US10793564B2, “Amino acid compounds and methods of use” (Pliant Therapeutics, Inc., priority 2018, dated 2020).

Biological target: recombinant human integrin αVβ6 (Homo sapiens (Human), UniProt P06756+P18564)
Assay: Solid phase integrin αVβ6 binding assay
Settings: inhibition of recombinant TGFβ1 LAP binding to coated integrin, IC50 presented in four ranges, read-out: αvβ6 Inhibition IC50 (nM) - range
Outline: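 Plates coated with recombinant human αVβ6 (2 μg/mL) and blocked; compounds competed with TGFβ1 LAP (0.67 μg/mL) in Mn2+ (0.5 mM)/BSA/sucrose TBS for 2 h at 25° C. Bound LAP detected by biotin anti-LAP and peroxidase-streptavidin; IC50 by four-parameter logistic fit.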

Sequence of recombinant human integrin αVβ6 (P06756 31-992): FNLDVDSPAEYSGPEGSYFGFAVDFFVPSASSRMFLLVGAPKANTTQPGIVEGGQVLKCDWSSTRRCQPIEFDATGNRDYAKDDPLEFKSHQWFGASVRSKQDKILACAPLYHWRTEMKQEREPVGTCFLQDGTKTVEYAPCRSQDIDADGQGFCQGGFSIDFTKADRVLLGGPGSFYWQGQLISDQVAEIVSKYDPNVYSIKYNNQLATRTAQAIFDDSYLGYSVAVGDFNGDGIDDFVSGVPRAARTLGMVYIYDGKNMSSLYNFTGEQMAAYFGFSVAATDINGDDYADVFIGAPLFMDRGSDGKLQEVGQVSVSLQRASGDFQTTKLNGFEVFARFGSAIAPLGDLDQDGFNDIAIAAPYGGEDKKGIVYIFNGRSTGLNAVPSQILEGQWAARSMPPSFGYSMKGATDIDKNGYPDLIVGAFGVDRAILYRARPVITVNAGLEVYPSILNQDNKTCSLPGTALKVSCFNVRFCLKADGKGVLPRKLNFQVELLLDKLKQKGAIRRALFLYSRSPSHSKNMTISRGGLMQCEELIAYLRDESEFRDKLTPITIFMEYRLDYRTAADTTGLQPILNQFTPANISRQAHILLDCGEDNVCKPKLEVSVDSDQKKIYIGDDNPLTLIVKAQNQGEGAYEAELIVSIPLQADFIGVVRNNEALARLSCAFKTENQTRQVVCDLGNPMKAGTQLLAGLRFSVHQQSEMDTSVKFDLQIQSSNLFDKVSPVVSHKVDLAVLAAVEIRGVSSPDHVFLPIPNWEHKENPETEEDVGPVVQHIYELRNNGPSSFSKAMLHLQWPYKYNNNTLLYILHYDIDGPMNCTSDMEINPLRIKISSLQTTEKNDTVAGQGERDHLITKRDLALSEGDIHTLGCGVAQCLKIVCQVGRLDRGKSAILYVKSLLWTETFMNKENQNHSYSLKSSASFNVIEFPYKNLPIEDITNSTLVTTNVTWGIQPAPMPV
Sequence of recombinant human integrin αVβ6 (P18564 22-707): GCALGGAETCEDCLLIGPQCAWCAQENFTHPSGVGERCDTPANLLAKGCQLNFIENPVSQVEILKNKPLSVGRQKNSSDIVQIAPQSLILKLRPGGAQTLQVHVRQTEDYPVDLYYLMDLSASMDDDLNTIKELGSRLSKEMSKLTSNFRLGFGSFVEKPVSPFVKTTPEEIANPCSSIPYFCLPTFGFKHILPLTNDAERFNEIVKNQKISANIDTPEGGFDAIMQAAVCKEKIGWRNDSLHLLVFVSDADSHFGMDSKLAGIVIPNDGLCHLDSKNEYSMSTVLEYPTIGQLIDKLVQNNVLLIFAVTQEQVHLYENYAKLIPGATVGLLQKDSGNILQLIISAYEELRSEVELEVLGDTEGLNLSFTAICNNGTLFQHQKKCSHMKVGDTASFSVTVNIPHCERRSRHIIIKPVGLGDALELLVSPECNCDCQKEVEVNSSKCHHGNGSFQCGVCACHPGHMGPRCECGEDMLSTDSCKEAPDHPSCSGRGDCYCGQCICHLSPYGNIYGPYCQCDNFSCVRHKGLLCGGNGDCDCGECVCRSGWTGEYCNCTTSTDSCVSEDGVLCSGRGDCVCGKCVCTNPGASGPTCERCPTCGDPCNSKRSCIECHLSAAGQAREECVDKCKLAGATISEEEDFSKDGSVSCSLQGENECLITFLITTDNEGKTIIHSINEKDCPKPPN

| Structure (SMILES) | IC50 |
| --- | --- |
| Cn1ncc2c(N[C@@H](CCN(CCCCc3ccc4c(n3)NCCC4)CCC(F)F)C(=O)O)ncnc21 [Compound 133, (S)-4-((3,3-difluoropropyl) (4-(5,6,7,8-tetrahydro-1,8-naphthyridin-2-yl)butyl)amino)-2-((1-methyl-1H-pyrazolo[3,4-d]pyrimidin-4-yl)amino) butanoic Acid] | 50 to 250 nM |
| O=C(O)[C@H](CCN(CCCCc1ccc2c(n1)NCCC2)CCC(F)F)Nc1ccnc(C(F)(F)F)n1 [Compound 134, (S)-4-((3,3-difluoropropyl) (4-(5,6,7,8-tetrahydro-1,8-naphthyridin-2-yl)butyl)amino)-2-((2-(trifluoromethyl)pyrimidin-4-yl)amino) butanoic Acid] | 50 to 250 nM |
| Cn1ncc2c(N[C@@H](CCN(CCCF)CCCCc3ccc4c(n3)NCCC4)C(=O)O)ncnc21 [Compound 136, (S)-4-((3-fluoropropyl) (4-(5,6,7,8-tetrahydro-1,8-naphthyridin-2-yl)butyl)amino)-2-((1-methyl-1H-pyrazolo[3,4-d]pyrimidin-4-yl)amino) butanoic Acid] | < 50 nM |
| O=C(O)[C@H](CCN(CCCF)CCCCc1ccc2c(n1)NCCC2)Nc1ncc(C(F)(F)F)cn1 [Compound 137, (S)-4-((3-fluoropropyl) (4-(5,6,7,8-tetrahydro-1,8-naphthyridin-2-yl)butyl)amino)-2-((5-(trifluoromethyl)pyrimidin-2-yl)amino) butanoic Acid] | < 50 nM |
| N#Cc1cnc(N[C@@H](CCN(CCCCc2ccc3c(n2)NCCC3)CCOc2ccc(F)cc2)C(=O)O)nc1 [Compound 138, (S)-2-((5-cyanopyrimidin-2-yl)amino)-4-((2-(4-fluorophenoxy)ethyl) (4-(5,6,7,8-tetrahydro-1,8-naphthyridin-2-yl)butyl)amino) butanoic Acid] | < 50 nM |
| O=C(O)[C@H](CCN(CCCCc1ccc2c(n1)NCCC2)CCOc1ccc(F)cc1)Nc1ncc(C(F)(F)F)cn1 [Compound 139, (S)-4-((2-(4-fluorophenoxy)ethyl) (4-(5,6,7,8-tetrahydro-1,8-naphthyridin-2-yl)butyl)amino)-2-((5-(trifluoromethyl)pyrimidin-2-yl)amino) butanoic Acid] | < 50 nM |
| CN(C)C(=O)CN(CCCCc1ccc2c(n1)NCCC2)CC[C@H](Nc1ncnc2c1cnn2C)C(=O)O [Compound 140, (S)-4-((2-(dimethylamino)-2-oxoethyl) (4-(5,6,7,8-tetrahydro-1,8-naphthyridin-2-yl)butyl)amino)-2-((1-methyl-1H-pyrazolo[3,4-d]pyrimidin-4-yl)amino) butanoic Acid] | < 50 nM |
| CN(C)C(=O)CN(CCCCc1ccc2c(n1)NCCC2)CC[C@H](Nc1ncc(C(F)(F)F)cn1)C(=O)O [Compound 141, (S)-4-((2-(dimethylamino)-2-oxoethyl) (4-(5,6,7,8-tetrahydro-1,8-naphthyridin-2-yl)butyl)amino)-2-((5-(trifluoromethyl)pyrimidin-2-yl)amino) butanoic Acid] | 50 to 250 nM |
| O=C(O)[C@H](CCN(CCCCc1ccc2c(n1)NCCC2)CC(F)F)Nc1cc(-c2ccccc2)ncn1 [Compound 142, (S)-4-((2,2-difluoroethyl) (4-(5,6,7,8-tetrahydro-1,8-naphthyridin-2-yl)butyl)amino)-2-((6-phenylpyrimidin-4-yl)amino) butanoic Acid] | > 1000 nM |
| O=C(O)[C@H](CCN(CCCCc1ccc2c(n1)NCCC2)CCOc1ccc(F)cc1)Nc1ncnc2[nH]ncc12 [Compound 143, (S)-2-((1H-pyrazolo[3,4-d]pyrimidin-4-yl)amino)-4-((2-(4-fluorophenoxy)ethyl) (4-(5,6,7,8-tetrahydro-1,8-naphthyridin-2-yl)butyl)amino) butanoic Acid] | 50 to 250 nM |
| O=C(O)[C@H](CCN(CCCCc1ccc2c(n1)NCCC2)CCOc1ccc(F)cc1)Nc1ncc(Br)cn1 [Compound 144, (S)-2-((5-bromopyrimidin-2-yl)amino)-4-((2-(4-fluorophenoxy)ethyl) (4-(5,6,7,8-tetrahydro-1,8-naphthyridin-2-yl)butyl)amino) butanoic Acid] | 50 to 250 nM |
| CN(C)C(=O)CN(CCCCc1ccc2c(n1)NCCC2)CC[C@H](Nc1ccnc(C(F)(F)F)n1)C(=O)O [Compound 145, (S)-4-((2-(dimethylamino)-2-oxoethyl) (4-(5,6,7,8-tetrahydro-1,8-naphthyridin-2-yl)butyl)amino)-2-((2-(trifluoromethyl)pyrimidin-4-yl)amino) butanoic Acid] | < 50 nM |
| O=C(O)[C@H](CCN(CCCCc1ccc2c(n1)NCCC2)CC(F)F)Nc1ncc(C2CC2)cn1 [Compound 146, (S)-2-((5-cyclopropylpyrimidin-2-yl)amino)-4-((2,2-difluoroethyl) (4-(5,6,7,8-tetrahydro-1,8-naphthyridin-2-yl)butyl)amino) butanoic Acid] | > 1000 nM |
| O=C(O)[C@H](CCN(CCCCc1ccc2c(n1)NCCC2)CC1(F)COC1)Nc1ncnc2ccccc12 [Compound 147, (S)-4-(((3-fluorooxetan-3-yl)methyl) (4-(5,6,7,8-tetrahydro-1,8-naphthyridin-2-yl)butyl)amino)-2-(quinazolin-4-ylamino) butanoic Acid] | 50 to 250 nM |
